Reference: US4923882A, “Novel amine derivatives, salts thereof and an anti-ulcer agent containing the same” (Toyama Chemical Co., Ltd., priority 1982, dated 1990)

Assays:
gastric acid secretion [1] = test: Inhibitory effect on gastric acid secretion, perfused stomach preparation of anesthetized rat (histamine stimulated); format: in vivo, Wistar strain rats; conditions: intravenous
How it was run: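 Urethane-anesthetized, 18 h-fasted male Wistar rats (200 to 250 g); stomach perfused at 1 ml/min with saline at pH about 10, with perfusate pH recorded continuously under iv histamine 30 μg/kg/min. Drug given iv cumulatively once secretion steady (pH 3.3±0.2), each dose after a plateau; n=3 per dose.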

gastric acid secretion [2] = test: Inhibitory effect on gastric acid secretion, pylorus ligation method (histamine); format: in vivo, Wistar strain rats; conditions: Rattus norvegicus; 1 mg/kg, oral; histamine 25 mg/kg s.c.; read-out: Inhibition percentage (gastric acid secretion)
How it was run: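 Male Wistar rats (190–230 g, 5–6/group) fasted 35 h, dosed orally; pylorus ligated under ether 2 h later. Stomach removed after 3 h, gastric juice volume measured and acidity titrated with 0.1N NaOH to pH 7.0. Percent inhibition calculated against saline controls.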

[3] = system: isolated guinea pig atrium; test: Effect on isolated guinea pig atrium (histamine-induced heart rate); set-up: species or system Hartley guinea pig
Experimental: Hartley guinea pig (male, 300 to 400 g) was killed by blood-letting, immediately after which the heart was isolated, and the right atrium was separated in a Krebs-Henseleit solution and used as a preparation. […] The preparation was trained in a bath fluid, and after the heart rate became constant, 5×10^-6 M of histamine was administered. After the heart rate became constant, each drug was administered cumulatively.
The inhibition percentage was determined from the following equation: [formula] HRmin : heart rate before the administration of histamine HRmax : heart rate after the administration of histamine
HRx : heart rate at the time of the administration of each drug.
The number of experiments were five for each dose.

Indomethacin ulcer = test: Anti-ulcer activity: Indomethacin ulcer; format: in vivo, Wistar strain rats
Experimental: Six Wistar strain rats (male, 200 to 250 g) per group were starved for 24 hours, after which each drug was orally administered, and after 30 minutes, Indomethacin was injected subcutaneously at a dose of 30 mg/kg. After 5 hours, each rat was killed, and the stomach was removed and fixed with 3% formalin, after which the lengths of ulcers formed in the stomach was measured under the binocular stereoscopic microscope (10×), and the sum total of the lengths was taken as the ulcer index. To a control group was administered 0.5% Tween 80 physiological saline. The inhibition percentage was determined from the following equation: [formula]

[4] = system: Mepirizole-induced duodenal ulcer; test: Anti-ulcer activity: Mepirizole-induced duodenal ulcer; format: in vivo, Wistar strain rats
Experimental: (ii) Mepirizole-induced duodenal ulcer
A test was carried out according to the method of Okabe et al. [S. Okabe et al., Gastrcenterology, 80, 1241 (1981)].
Six Wistar strain rats (male, 200 to 250 g) per group were starved for 24 hours, after which each drug was orally administered, and after 30 minutes, mepirizole was injected subcutaneously at a dose of 200 mg/kg. After 18 hours, the stomach and duodenum were removed and fixed with 3% formalin, after which the areas and depths of the ulcers formed in the duodenum were measured under the binocular stereoscopic microscope (10×). The scores were given in 7 grades depending on the areas and depths of the ulcers, and the sum total of the scores was taken as the ulcer index. The scores were given as follows:
That is to say, the score is 0 at an ulcer area of 0 to 0.2 mm^2, 1 at 0.2 to 1.0 mm^2, 2 at 1 to 3 mm^2, 3 at 3 to 6 mm^2, 4 at 6 to 10 mm^2,5 at 10 mm^2 or more, the ulcer in the condition immediately before perforation is scored as 6, and the ulcer which had caused perforation is scored as 7.
(§1) To a control group was administered 0.5% Tween 80 physiological saline. The inhibition percentage was determined from the following equation: [formula]

[5] = system: Stress ulcer induced by water-immersion; test: Anti-ulcer activity: Stress ulcer induced by water-immersion; format: in vivo, Wistar rats
Experimental: (iii) Stress ulcer induced by water-immersion
An experiment was carried out according to the method of Takagi et al. [K. Takagi et al., Jap.
Six Wistar rats (male, 230 to 280 g) per group were starved for 24 hours, after which each drug was orally administered. After 30 minutes, the rats were placed in stress cage, immersed in water at 23° C. to the depth of xiphoid, and allowed to stand therein for 15 hours. Thereafter, the stomach of each rat was removed and then fixed with 3% formalin, after which the areas of the ulcers formed were measured under the binocular stereoscopic microscope (10×), and the sum total of the areas was taken as the ulcer index. To a control group was administered 0.5% Tween 80 physiological saline.
The inhibition percentage was determined from the following equation: [formula]

Reserpine ulcer = test: Anti-ulcer activity: Reserpine ulcer; format: in vivo, Wistar strain rats; conditions: oral
Experimental: An experiment was carried out according to the method of Adami et al. [E. Adami et al., Arch. int.
Ten Wistar strain rats (male, 180 to 200 g) per group were starved for 30 hours, after which each drug was orally administered, and after 1 hour, reserpine was injected subcutaneously at a dose of 10 mg/kg. After 18 hours, the stomach was removed and fixed with 3% formalin, and thereafter the lengths of the ulcers formed in the stomach were measured with callipers. The measured values were converted to the scores described below, and the sum total of the scores was taken as the ulcer index.
That is to say, 1 to 5 pin point ulcers are scored as 1, 6 or more pin point ulcers are scored as 2, ulcers of 1 mm or less in length are scored as 1, ulcers of 1 to 2 mm in length are scored as 2, ulcers of 2 to 4 mm in length are scored as 4, and ulcers of 4 mm or more in length are scored as 8.
as §1

Q: For `COc1cccc(C(O)CNC(=C[N+](=O)[O-])NCCSCc2cc(C)c(CN(C)C)s2)c1` (stereo not drawn) [compound 9, N-{2-[[5-(dimethylamino)methyl-4-methyl-2-thienyl]methylthio]ethyl}-N'-[2-hydroxy-2-(3-methoxyphenyl)ethyl]-2-nitro-1,1-ethenediamine], which ED100 (gastric acid secretion [1]; Rattus norvegicus, cumulative, histamine 30 μg/kg/min, read-out: Dose for complete inhibition) is on record?
A: 0.2 mg/kg

Q: What about the Duration (gastric acid secretion [1]; time from complete inhibition until pH of perfusate became 4) of the same compound?
A: 190 min

Q: And the inhibition in vivo at 1 mg/kg (gastric acid secretion [2])?
A: 75%

Q: What about the Potency ratio ([3]; Cimetidine = 1) of the same compound?
A: 13.7

Q: What about the IC50 ([3]; right atrium, 5×10^-6 M histamine, 30° C., read-out: ID50 (the source's name)) of the same compound?
A: 245 nM

Q: What about the Potency ratio (Indomethacin ulcer; Cimetidine = 1) of the same compound?
A: 39.3

Q: What about the ED50 (Indomethacin ulcer; Rattus norvegicus, 5 h, oral, Indomethacin ulcer, read-out: ID50 (the source's name)) of the same compound?
A: 0.7 mg/kg

Q: And the inhibition in vivo at 0.3 mg/kg (Indomethacin ulcer; Rattus norvegicus, 0.3 mg/kg, oral, read-out: Inhibition percentage)?
A: 6%

Q: And the inhibition in vivo at 1 mg/kg (Indomethacin ulcer; Rattus norvegicus, 1 mg/kg, oral, read-out: Inhibition percentage)?
A: 70%

Q: What about the inhibition in vivo at 3 mg/kg (Indomethacin ulcer; Rattus norvegicus, 3 mg/kg, oral, read-out: Inhibition percentage) of the same compound?
A: 85%

Q: And the inhibition in vivo at 10 mg/kg (Indomethacin ulcer; Rattus norvegicus, 10 mg/kg, oral, read-out: Inhibition percentage)?
A: 97%

Q: And the Inhibition percentage ([4]; 1 mg/kg, oral)?
A: -8%

Q: What about the Inhibition percentage ([4]; 3 mg/kg, oral) of the same compound?
A: 33%

Q: What about the Inhibition percentage ([4]; 10 mg/kg, oral) of the same compound?
A: 93%

Q: What about the Potency ratio ([4]; Cimetidine = 1) of the same compound?
A: 37.7

Q: And the ED50 ([4]; Rattus norvegicus, 18 h, oral, mepirizole-induced duodenal ulcer, read-out: ID50 (the source's name))?
A: 4.3 mg/kg

Q: What about the Inhibition percentage ([5]; 1 mg/kg, oral) of the same compound?
A: 33%

Q: What about the Inhibition percentage ([5]; 3 mg/kg, oral) of the same compound?
A: 66%

Q: What about the Inhibition percentage ([5]; 10 mg/kg, oral) of the same compound?
A: 86%

Q: What about the Potency ratio ([5]; Cimetidine = 1) of the same compound?
A: 9.1

Q: What about the ED50 ([5]; Rattus norvegicus, 15 h, oral, water-immersion stress ulcer, read-out: ID50 (the source's name)) of the same compound?
A: 1.7 mg/kg

Q: What about the Inhibition percentage (Reserpine ulcer; 1 mg/kg) of the same compound?
A: 29%

Q: What about the Inhibition percentage (Reserpine ulcer; 3 mg/kg) of the same compound?
A: 69%

Q: What about the ED50 (Reserpine ulcer; Rattus norvegicus, 18 h, reserpine ulcer, read-out: ID50 (the source's name)) of the same compound?
A: 1.8 mg/kg
